One assay deals with T1, A0A066XG69 (Colletotrichum sublineola, UniProt A0A066XG69).
T1 construct: gene CSUB01_08252; heterologously expressed in E. coli; RadH homolog
Put plainly: HPLC-MS chlorination assay. Format: biochemical. As to conditions: FAD, Fre, NADH, MgCl2, Tris HCl pH 7.4, 18 h.

Another assay has as its target T2, E3R0Q3 (Colletotrichum graminicola, UniProt E3R0Q3).
T2 construct: gene GLRG_11837; heterologously expressed in E. coli; RadH homolog
As to the kind of experiment: HPLC-MS chlorination assay. In kind it is biochemical. As to conditions: FAD, Fre, NADH, MgCl2, Tris HCl pH 7.4, 18 h.

In the next assay the target is T3, RadH (Floropilus chiversii, UniProt C5H881).
T3 construct: codon-optimized synthetic gene in pET28, expressed in E. coli T7 Express, Ni-NTA purified; two monomers in the asymmetric unit
Put plainly: X-ray crystallography, […] Å. The settings on record: FAD bound in the flavin-binding domain; chlorine atom in adjacent space; crystals pH 6.5.

The structures appear in SMILES notation.

T1 sequence (A0A066XG69 1-512): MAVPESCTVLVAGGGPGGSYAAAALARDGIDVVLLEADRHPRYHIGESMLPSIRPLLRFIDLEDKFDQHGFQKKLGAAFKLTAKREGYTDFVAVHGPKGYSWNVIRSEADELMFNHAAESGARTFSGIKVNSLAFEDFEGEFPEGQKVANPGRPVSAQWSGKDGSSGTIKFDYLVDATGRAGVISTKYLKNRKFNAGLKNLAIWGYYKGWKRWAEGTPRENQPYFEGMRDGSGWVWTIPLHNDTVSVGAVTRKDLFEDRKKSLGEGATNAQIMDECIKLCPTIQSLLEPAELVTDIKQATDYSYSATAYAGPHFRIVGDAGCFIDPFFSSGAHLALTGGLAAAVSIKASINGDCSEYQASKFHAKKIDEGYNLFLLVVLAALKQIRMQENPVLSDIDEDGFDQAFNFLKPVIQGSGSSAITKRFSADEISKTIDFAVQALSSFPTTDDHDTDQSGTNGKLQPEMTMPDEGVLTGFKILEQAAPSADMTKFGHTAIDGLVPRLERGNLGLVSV
T2 sequence (E3R0Q3 1-512): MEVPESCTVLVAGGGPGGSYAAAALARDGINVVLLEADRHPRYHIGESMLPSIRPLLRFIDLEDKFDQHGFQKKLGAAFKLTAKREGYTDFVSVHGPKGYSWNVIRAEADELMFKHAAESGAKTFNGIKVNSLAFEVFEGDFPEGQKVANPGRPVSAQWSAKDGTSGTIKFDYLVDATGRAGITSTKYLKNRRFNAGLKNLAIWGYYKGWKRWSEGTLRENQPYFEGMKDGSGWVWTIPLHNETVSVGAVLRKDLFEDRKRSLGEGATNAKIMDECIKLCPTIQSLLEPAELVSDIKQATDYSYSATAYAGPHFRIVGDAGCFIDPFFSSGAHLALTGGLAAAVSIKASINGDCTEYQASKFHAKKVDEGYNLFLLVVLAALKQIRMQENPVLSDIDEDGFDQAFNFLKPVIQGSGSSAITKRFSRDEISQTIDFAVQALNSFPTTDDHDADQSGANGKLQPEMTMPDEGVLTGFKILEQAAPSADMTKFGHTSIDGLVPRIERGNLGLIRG
T3 sequence (C5H881 whole entry): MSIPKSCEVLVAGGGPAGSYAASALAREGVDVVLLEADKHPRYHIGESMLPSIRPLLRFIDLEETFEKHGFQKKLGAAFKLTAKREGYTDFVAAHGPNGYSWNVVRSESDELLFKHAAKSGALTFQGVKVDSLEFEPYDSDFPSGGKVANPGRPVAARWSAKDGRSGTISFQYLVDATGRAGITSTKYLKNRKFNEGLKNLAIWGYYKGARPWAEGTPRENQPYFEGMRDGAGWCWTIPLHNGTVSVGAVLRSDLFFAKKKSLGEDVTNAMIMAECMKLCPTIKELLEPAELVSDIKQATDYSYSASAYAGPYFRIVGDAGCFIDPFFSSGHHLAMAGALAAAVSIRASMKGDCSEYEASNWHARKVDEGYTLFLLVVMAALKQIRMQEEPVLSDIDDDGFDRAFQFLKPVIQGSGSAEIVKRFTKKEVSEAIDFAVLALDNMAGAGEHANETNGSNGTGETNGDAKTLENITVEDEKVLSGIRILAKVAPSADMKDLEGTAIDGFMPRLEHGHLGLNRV

`Oc1ccc2cnccc2c1` [6-hydroxyisoquinoline]: the HPLC-MS chlorination assay result at A0A066XG69 was “A0A066XG69 demonstrated higher conversion compared to RadH or E3R0Q3”; at E3R0Q3, “E3R0Q3 (Colletotrichum graminicola) and A0A066XG69 (Colletotrichum sublineola), showed activity with standard 6-hydroxyhisoquinoline substrates”.
With `Cc1cc2nc3c(=O)[nH]c(=O)nc-3n(C[C@H](O)[C@H](O)[C@H](O)COP(=O)(O)OP(=O)(O)OC[C@H]3O[C@@H](n4cnc5c(N)ncnc54)[C@H](O)[C@@H]3O)c2cc1C` [FAD], the “X-ray crystallography, 2.4 Å” value on RadH was “Each monomer consists of a conserved Flavin-binding domain with FAD bound”.

Source of the values: publication PMC10377541, “Further Characterization of Fungal Halogenase RadH and Its Homologs” (Biomolecules, 2023).
